Measured values as given in ChEMBL document CHEMBL4052759, “Discovery of DS79182026: A potent orally active hepcidin production inhibitor” (Bioorg Med Chem Lett, 2017).

What was measured:
[1] = biological target: RAC-beta serine/threonine-protein kinase (Homo sapiens) (UniProt P31751); assay: Inhibition of AKT2 (unknown origin) at 0.078 uM relative to control
[2] = biological target: Calcium/calmodulin-dependent protein kinase type II subunit beta (Homo sapiens) (UniProt Q13554); assay: Inhibition of CAMK2 (unknown origin) at 0.078 uM relative to control
[3] = biological target: Mitogen-activated protein kinase 3 (Homo sapiens) (UniProt P27361); assay: Inhibition of Erk1 (unknown origin) at 0.078 uM relative to control
[4] = biological target: Mitogen-activated protein kinase 14 (Homo sapiens) (UniProt Q16539); assay: Inhibition of p38a (unknown origin) at 0.078 uM relative to control
[5] = biological target: Receptor-type tyrosine-protein kinase FLT3 (Homo sapiens) (UniProt P36888); assay: Inhibition of FLT3 (unknown origin) at 0.078 uM relative to control
[6] = biological target: Vascular endothelial growth factor receptor 2 (Homo sapiens) (UniProt P35968); assay: Inhibition of KDR (unknown origin) at 0.078 uM relative to control
[7] = biological target: T1, Interleukin-1 receptor-associated kinase 4 (Homo sapiens) (UniProt Q9NWZ3); assay: Inhibition of IRAK4 (unknown origin) at 0.078 uM relative to control
T1 sequence (whole entry): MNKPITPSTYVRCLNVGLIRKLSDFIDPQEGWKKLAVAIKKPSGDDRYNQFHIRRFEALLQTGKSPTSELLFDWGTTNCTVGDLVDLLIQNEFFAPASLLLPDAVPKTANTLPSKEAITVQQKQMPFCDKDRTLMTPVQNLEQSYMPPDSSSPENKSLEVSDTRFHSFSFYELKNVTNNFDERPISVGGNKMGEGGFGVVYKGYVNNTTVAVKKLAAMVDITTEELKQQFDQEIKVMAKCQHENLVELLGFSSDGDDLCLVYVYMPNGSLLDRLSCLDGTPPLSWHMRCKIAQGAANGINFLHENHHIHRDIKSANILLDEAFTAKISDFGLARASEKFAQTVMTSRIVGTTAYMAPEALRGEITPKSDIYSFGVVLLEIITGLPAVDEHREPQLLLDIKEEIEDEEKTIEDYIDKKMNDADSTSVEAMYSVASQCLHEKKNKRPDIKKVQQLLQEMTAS

[8] = biological target: RAC-alpha serine/threonine-protein kinase (Homo sapiens) (UniProt P31749); assay: Inhibition of AKT1 (unknown origin) at 0.49 uM relative to control
[9] = biological target: RAC-beta serine/threonine-protein kinase (Homo sapiens) (UniProt P31751); assay: Inhibition of AKT2 (unknown origin) at 0.49 uM relative to control
[10] = biological target: Testis-specific serine/threonine-protein kinase 2 (Homo sapiens) (UniProt Q96PF2); assay: Inhibition of TSSK2 (unknown origin) at 0.49 uM relative to control
[11] = biological target: Ephrin type-A receptor 8 (Homo sapiens) (UniProt P29322); assay: Inhibition of EPHA8 (unknown origin) at 0.49 uM relative to control
[12] = biological target: Ribosomal protein S6 kinase alpha-2 (Homo sapiens) (UniProt Q15349); assay: Inhibition of RSK3 (unknown origin) at 0.49 uM relative to control
[13] = biological target: Serine/threonine-protein kinase Nek2 (Homo sapiens) (UniProt P51955); assay: Inhibition of NEK2 (unknown origin) at 0.49 uM relative to control
[14] = biological target: Cyclin-dependent kinase 1/cyclin B1 (Homo sapiens) (UniProt P06493+P14635); assay: Inhibition of CDK1/CyclinB (unknown origin) at 0.49 uM relative to control; format: protein-complex assay
[15] = biological target: Cyclin-dependent kinase 3 (Homo sapiens) (UniProt Q00526); assay: Inhibition of CDK3 (unknown origin) at 0.49 uM relative to control
[16] = biological target: SRSF protein kinase 3 (Homo sapiens) (UniProt Q9UPE1); assay: Inhibition of MSSK1 (unknown origin) at 0.49 uM relative to control
[17] = biological target: Tyrosine-protein kinase FRK (Homo sapiens) (UniProt P42685); assay: Inhibition of FRK (unknown origin) at 0.49 uM relative to control
[18] = biological target: Mast/stem cell growth factor receptor Kit (Homo sapiens) (UniProt P10721); assay: Inhibition of KIT (unknown origin) at 0.49 uM relative to control
[19] = biological target: Phosphorylase b kinase gamma catalytic chain, skeletal muscle/heart isoform (Homo sapiens) (UniProt Q16816); assay: Inhibition of PhKg1 (unknown origin) at 0.49 uM relative to control
[20] = biological target: Serine/threonine-protein kinase pim-3 (Homo sapiens) (UniProt Q86V86); assay: Inhibition of PIM3 (unknown origin) at 0.49 uM relative to control
[21] = biological target: Serine/threonine-protein kinase 4 (Homo sapiens) (UniProt Q13043); assay: Inhibition of MST1 (unknown origin) at 0.49 uM relative to control
[22] = biological target: High affinity nerve growth factor receptor (Homo sapiens) (UniProt P04629); assay: Inhibition of TRKA (unknown origin) at 0.49 uM relative to control
[23] = biological target: Tyrosine-protein kinase receptor TYRO3 (Homo sapiens) (UniProt Q06418); assay: Inhibition of TYRO3 (unknown origin) at 0.49 uM relative to control
[24] = biological target: Ribosomal protein S6 kinase alpha-5 (Homo sapiens) (UniProt O75582); assay: Inhibition of MSK1 (unknown origin) at 0.45 uM relative to control
[25] = biological target: Protein kinase C epsilon type (Homo sapiens) (UniProt Q02156); assay: Inhibition of PKC-epsilon (unknown origin) at 0.45 uM relative to control
[26] = biological target: Cyclin-dependent kinase 2 (Homo sapiens) (UniProt P24941); assay: Inhibition of CDK2 (unknown origin) at 0.45 uM relative to control
[27] = biological target: Cyclin-dependent kinase 5/CDK5 activator 1 (Homo sapiens) (UniProt Q00535+Q15078); assay: Inhibition of CDK5/p25 (unknown origin) at 0.45 uM relative to control; format: protein-complex assay
[28] = test system: Fibroblast growth factor receptor 1 (Homo sapiens), P11362 [V561M]; assay: Inhibition of FGFR1 V561M mutant (unknown origin) at 0.45 uM relative to control
[29] = biological target: Inhibitor of nuclear factor kappa-B kinase subunit epsilon (Homo sapiens) (UniProt Q14164); assay: Inhibition of IKBKE (unknown origin) at 0.45 uM relative to control
[30] = biological target: Homeodomain-interacting protein kinase 4 (Homo sapiens) (UniProt Q8NE63); assay: Inhibition of HIPK4 (unknown origin) at 0.45 uM relative to control
[31] = biological target: SRSF protein kinase 3 (Homo sapiens) (UniProt Q9UPE1); assay: Inhibition of MSSK1 (unknown origin) at 0.45 uM relative to control
[32] = biological target: NT-3 growth factor receptor (Homo sapiens) (UniProt Q16288); assay: Inhibition of TRKC (unknown origin) at 0.45 uM relative to control
[33] = biological target: MAP/microtubule affinity-regulating kinase 3 (Homo sapiens) (UniProt P27448); assay: Inhibition of c-TAK1 (unknown origin) at 0.45 uM relative to control

Chain of SRSF protein kinase 3 (Homo sapiens) (Q9UPE1 whole entry): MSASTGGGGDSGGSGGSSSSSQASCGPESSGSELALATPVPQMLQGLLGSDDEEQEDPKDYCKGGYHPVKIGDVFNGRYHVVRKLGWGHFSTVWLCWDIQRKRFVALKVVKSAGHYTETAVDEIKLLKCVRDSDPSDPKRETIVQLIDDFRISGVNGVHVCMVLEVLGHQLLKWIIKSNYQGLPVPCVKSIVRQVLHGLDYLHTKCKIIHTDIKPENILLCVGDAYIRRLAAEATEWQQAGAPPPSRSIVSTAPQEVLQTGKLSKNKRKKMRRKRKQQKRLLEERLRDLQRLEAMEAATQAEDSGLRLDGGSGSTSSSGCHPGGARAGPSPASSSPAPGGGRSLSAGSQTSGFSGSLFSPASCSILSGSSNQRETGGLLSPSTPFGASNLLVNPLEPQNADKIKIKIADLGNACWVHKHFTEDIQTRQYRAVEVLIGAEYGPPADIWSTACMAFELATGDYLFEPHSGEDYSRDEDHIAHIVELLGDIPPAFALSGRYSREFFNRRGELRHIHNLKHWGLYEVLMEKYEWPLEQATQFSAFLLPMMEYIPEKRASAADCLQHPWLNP
Chain of RAC-beta serine/threonine-protein kinase (Homo sapiens) (P31751 whole entry): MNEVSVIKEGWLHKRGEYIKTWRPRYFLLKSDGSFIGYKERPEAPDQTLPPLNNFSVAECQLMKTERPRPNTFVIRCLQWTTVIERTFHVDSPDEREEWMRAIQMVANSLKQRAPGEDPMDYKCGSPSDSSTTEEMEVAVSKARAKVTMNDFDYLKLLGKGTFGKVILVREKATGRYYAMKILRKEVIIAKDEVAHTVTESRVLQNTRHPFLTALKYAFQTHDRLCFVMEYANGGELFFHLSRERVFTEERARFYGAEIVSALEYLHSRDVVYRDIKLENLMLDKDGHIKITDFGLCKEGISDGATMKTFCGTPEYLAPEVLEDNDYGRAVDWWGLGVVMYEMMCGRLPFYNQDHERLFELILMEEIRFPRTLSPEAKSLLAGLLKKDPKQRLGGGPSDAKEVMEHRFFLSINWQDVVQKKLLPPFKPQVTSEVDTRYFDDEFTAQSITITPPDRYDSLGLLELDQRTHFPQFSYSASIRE
Chain of Mitogen-activated protein kinase 3 (Homo sapiens) (P27361 whole entry): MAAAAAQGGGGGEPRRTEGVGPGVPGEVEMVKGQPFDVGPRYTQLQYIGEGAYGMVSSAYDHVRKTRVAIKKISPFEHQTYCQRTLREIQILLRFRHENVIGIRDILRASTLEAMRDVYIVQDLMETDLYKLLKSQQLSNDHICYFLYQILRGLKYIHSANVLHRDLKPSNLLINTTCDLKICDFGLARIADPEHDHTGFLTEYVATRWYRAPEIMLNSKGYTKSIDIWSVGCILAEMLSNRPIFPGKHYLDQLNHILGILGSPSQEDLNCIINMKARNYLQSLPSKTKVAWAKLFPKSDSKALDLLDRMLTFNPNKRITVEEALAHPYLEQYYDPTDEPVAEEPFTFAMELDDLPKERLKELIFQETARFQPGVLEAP
Chain of Receptor-type tyrosine-protein kinase FLT3 (Homo sapiens) (P36888 whole entry): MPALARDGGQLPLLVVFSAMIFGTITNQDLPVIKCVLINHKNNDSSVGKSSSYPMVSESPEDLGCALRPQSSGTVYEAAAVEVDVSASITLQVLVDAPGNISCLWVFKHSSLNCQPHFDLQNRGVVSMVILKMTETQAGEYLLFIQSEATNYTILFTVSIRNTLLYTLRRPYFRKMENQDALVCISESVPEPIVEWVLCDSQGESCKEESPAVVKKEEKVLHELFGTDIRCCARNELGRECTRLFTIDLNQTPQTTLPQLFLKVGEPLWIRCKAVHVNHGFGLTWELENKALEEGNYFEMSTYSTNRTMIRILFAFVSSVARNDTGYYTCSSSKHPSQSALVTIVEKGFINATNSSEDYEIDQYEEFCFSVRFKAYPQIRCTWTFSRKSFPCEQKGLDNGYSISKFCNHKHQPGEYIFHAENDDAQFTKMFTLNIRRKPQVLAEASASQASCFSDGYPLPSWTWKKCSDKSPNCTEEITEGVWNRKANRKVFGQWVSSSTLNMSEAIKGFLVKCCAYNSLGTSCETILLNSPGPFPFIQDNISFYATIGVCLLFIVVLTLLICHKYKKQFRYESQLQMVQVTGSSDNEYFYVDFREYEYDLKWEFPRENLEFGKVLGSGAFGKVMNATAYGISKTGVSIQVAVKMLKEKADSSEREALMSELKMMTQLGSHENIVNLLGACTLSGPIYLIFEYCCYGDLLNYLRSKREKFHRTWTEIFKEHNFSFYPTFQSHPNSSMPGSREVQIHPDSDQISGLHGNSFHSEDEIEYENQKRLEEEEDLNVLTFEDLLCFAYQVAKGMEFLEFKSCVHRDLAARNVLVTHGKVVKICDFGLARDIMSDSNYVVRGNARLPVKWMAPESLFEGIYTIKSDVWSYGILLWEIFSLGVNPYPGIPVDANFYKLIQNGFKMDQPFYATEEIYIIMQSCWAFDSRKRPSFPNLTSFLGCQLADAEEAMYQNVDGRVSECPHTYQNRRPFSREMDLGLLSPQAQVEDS
Chain of Mitogen-activated protein kinase 14 (Homo sapiens) (Q16539 whole entry): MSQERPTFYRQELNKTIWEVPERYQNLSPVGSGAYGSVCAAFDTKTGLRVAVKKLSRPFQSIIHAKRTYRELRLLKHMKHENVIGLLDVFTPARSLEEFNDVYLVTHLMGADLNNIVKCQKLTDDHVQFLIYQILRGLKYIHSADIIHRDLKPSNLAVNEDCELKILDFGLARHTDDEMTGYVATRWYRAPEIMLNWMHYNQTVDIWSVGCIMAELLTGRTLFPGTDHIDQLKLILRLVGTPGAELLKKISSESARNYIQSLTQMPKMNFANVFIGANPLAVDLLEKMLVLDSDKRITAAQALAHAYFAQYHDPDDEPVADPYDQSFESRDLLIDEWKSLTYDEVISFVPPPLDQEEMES
Chain of Cyclin-dependent kinase 3 (Homo sapiens) (Q00526 whole entry, looked up): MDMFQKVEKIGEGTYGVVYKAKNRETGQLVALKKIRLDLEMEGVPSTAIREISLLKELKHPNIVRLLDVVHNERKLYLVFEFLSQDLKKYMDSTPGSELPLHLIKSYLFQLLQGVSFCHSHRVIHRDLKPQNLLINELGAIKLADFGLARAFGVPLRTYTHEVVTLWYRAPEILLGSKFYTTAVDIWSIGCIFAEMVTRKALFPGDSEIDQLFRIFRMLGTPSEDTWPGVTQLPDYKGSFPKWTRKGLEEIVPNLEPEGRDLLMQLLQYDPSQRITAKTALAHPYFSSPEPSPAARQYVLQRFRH
Chain of Cyclin-dependent kinase 1/cyclin B1 (Homo sapiens) (P06493 whole entry, looked up): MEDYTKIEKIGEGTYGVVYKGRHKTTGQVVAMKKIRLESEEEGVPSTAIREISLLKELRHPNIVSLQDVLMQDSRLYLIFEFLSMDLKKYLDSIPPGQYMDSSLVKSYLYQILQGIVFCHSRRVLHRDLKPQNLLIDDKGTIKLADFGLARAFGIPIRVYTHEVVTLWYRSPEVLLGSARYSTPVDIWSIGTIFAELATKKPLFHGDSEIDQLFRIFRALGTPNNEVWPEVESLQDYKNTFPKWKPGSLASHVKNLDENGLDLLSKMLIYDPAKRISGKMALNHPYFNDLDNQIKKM
Chain of Cyclin-dependent kinase 1/cyclin B1 (Homo sapiens) (P14635 whole entry, looked up): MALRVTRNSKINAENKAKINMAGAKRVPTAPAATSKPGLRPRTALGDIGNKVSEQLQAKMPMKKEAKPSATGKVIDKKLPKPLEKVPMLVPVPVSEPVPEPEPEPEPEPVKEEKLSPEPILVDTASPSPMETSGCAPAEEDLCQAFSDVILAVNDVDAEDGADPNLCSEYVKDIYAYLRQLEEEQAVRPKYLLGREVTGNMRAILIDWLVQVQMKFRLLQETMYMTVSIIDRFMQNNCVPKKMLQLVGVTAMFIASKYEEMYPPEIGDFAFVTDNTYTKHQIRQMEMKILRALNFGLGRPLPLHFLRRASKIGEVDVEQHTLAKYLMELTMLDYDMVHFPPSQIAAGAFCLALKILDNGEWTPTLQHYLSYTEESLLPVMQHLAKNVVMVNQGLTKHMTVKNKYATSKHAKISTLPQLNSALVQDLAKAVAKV
Chain of Ephrin type-A receptor 8 (Homo sapiens) (P29322 whole entry): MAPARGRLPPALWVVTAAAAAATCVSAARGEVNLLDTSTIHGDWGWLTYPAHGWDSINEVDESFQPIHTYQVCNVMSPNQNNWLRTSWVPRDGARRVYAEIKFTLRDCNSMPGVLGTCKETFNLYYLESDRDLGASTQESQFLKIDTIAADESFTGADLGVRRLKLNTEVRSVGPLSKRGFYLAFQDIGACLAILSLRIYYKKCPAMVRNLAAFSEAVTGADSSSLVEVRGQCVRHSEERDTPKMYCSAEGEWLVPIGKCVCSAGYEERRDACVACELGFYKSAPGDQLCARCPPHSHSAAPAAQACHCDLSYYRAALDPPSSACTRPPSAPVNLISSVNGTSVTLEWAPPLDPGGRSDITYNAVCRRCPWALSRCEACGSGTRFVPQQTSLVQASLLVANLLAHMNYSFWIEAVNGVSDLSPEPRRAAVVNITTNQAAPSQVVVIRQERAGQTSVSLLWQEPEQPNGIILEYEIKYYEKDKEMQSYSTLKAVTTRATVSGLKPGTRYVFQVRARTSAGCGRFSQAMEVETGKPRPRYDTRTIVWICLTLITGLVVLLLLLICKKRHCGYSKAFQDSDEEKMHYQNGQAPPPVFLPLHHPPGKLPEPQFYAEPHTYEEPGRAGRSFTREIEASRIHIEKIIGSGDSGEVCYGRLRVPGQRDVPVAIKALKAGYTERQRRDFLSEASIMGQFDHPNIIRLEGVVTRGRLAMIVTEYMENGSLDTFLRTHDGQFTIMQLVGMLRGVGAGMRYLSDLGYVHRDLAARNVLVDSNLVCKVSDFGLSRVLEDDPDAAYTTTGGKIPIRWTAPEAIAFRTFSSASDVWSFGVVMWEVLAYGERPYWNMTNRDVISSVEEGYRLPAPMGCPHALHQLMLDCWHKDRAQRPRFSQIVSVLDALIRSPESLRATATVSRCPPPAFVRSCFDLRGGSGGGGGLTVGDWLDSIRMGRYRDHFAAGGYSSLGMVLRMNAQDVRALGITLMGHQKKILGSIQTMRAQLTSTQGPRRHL

COC(=O)Nc1noc2cc(-c3c(-c4ccccn4)n[nH]c3C)ccc12
inhibition [1]: 4% | inhibition [2]: 3.7% | inhibition [3]: 8% | inhibition [4]: 5.7% | inhibition [5]: -0.3% | inhibition [6]: 17.3% | inhibition [7]: 5.7%

Cc1[nH]nc(C2CC2)c1-c1ccc2c(NC(=O)C3CC3)noc2c1
inhibition [8]: 2.3% | inhibition [9]: 3% | inhibition [10]: 2% | inhibition [11]: -2.7% | inhibition [12]: 2% | inhibition [13]: 10.7% | inhibition [14]: 5.3% | inhibition [15]: 3.3% | inhibition [16]: 4% | inhibition [17]: 1.3% | inhibition [18]: 1% | inhibition [19]: 2.3% | inhibition [20]: -4% | inhibition [21]: 9.3% | inhibition [22]: 3.7% | inhibition [23]: 8.7%

Cc1n[nH]c(C)c1-c1ccc2c(NC(=O)c3ccc(N4CCN(C)CC4)cc3)n[nH]c2c1
inhibition [24]: 1.3% | inhibition [25]: 9% | inhibition [26]: 6% | inhibition [27]: 0.3% | inhibition [28]: 23.7% | inhibition [29]: 6.3% | inhibition [30]: 1.3% | inhibition [31]: 2% | inhibition [32]: 95% | inhibition [33]: 15%
